Test [1] has as its system Dirofilaria immitis. The test can be described thus: Activity in vitro against Dirofilaria immitis microfilariae (motility). The class given is cell-based. The following applies: at up to 10 μg/mL; efficacy in percent reduced motility of microfilariae; 48 hours at 26° C.
Test [2] deals with H. contortus. The test can be described thus: Larval development assay (LDA). The following applies: for LD50 against H. Contortus: larval development assay, L3 counted after 7 days; for inhibition of the development of H. contortus larvae: at concentrations between 100 μM and 25 μM.
For test [3], the system named is MRC-5. Description: Resazurin fluorometric cell viability assay, MRC-5. As to conditions: Homo sapiens, MRC5, 48 h, read-out: IC50 in MRC-5.
Method: (§1) The toxicity towards a human cervical cancer HeLa and a non-cancerous (MRC-5) cell line was determined using the fluorometric cell viability assay (Resazurin) (Ahmed et al., J. Immunol. Methods 1994, 170, 211.), results of which are shown in Table 1.
(§2) Human cervical carcinoma cells (HeLa) cells were cultured in DMEM (Gibco) supplemented with 5% fetal calf serum (FCS, Gibco), 100 U/ml penicillin, 100 μg/ml streptomycin at 37° C. and 5% CO2. The normal human fetal lung fibroblast MRC-5 cell line was maintained in F-10 medium (Gibco) supplemented with 10% FCS (Gibco), penicillin (100 U/ml), and streptomycin (100 μg/ml). Cytotoxicity studies were performed on two different cell lines, namely HeLa, and MRC-5, by a fluorometric cell viability assay using Resazurin (Promocell GmbH). Briefly, one day before treatment, cells were seeded in triplicates in 96-well plates at a density of 4×10^3 cells/well for HeLa and 7×10^3 for MRC-5 in 1041.1 growth medium. Upon treating cells with increasing concentrations of Fc-PZQ derivatives for 48h, the medium was removed, and 100 μl complete medium containing Resazurin (0.2 mg/ml final concentration) were added. After 4h of incubation at 37° C., fluorescence of the highly red fluorescent product Resorufin was quantified at 590 nm emission with 540 nm excitation wavelength in a SpectraMax M5 microplate Reader.
Test [4] has as its system HeLa. Description: Resazurin fluorometric cell viability assay, HeLa. As to conditions: Homo sapiens, 48 h, read-out: IC50 in HeLa.
Method: as §1, §2

For `CC(C#N)(COC(=O)c1ccccc1)NC(=O)c1ccc(SC(F)(F)F)cc1` (centres unmarked), in test [1], the “Activity against Dirofilaria immitis” value is “EC6 at up to 10 μg/mL”.
As for `C#CC(=O)OCC(C)(C#N)NC(=O)c1ccc(SC(F)(F)F)cc1` (centres unmarked), the “Activity against Dirofilaria immitis” value in test [1] is given as “EC15 at 0-10 μg/mL”.
As to `CC(C#N)(CO)NC(=O)c1ccc([S+]([O-])C(F)(F)F)cc1` (centres unmarked), the “Activity against Dirofilaria immitis” value in test [1] is “EC5 at up to 10 μg/mL”.
For `CC(C#N)(CO)NC(=O)c1ccc(S(=O)(=O)C(F)(F)F)cc1` (centres unmarked), in test [1], the “Activity against Dirofilaria immitis” value is on record as “EC15 at up to 10 μg/mL”.
Take `CC(C#N)(CO)NC(=O)c1ccc(C(F)(F)F)cc1` (centres unmarked): in test [1], the “Activity against Dirofilaria immitis” value is on record as “EC25 at up to 10 μg/mL”.
As for `CSc1ccc(C(=O)NC(C)(C#N)CO)cc1` (centres unmarked), the “Activity against Dirofilaria immitis” value in test [1] is “EC15 at up to 10 μg/mL”.
Still for that read-out and setting: the value for `CC(C#N)(CO)NC(=O)c1ccc(F)cc1` (centres unmarked) was “EC20 at up to 10 μg/mL”; that for `CC(C#N)(CO)NC(=O)c1ccc(I)cc1` (centres unmarked) was “EC15 at up to 10 μg/mL”.
In the case of `C[C@](C#N)(COc1cc(C#N)ccc1C(F)(F)F)NC(=O)c1ccc(SC(F)(F)F)cc1` [Zolvix, Monepantel, reference compound], the “LD50 against H. Contortus” value in test [2] is reported as under 41 nM. In addition, the figures for the IC50 in test [3] and in test [4] were 63.9 µM and 34.1 µM, respectively.
`CC(=O)OCC(C)(C#N)NC(=O)c1ccc(SC(F)(F)F)cc1` (centres unmarked) [ahpOH1, 2-Cyano-2-(4-((trifluoromethyl)thio)benzamido)propyl acetate]: in test [2], the “inhibition of the development of H. contortus larvae” value is “severely and reproducibly inhibited”; the “LD50 against H. Contortus” value amounted to 550 nM. In test [3], the IC50 is over 100 µM. For the same compound, the IC50 in test [4] was over 100 µM.
Regarding `CC(C#N)(CO)NC(=O)c1ccc(SC(F)(F)F)cc1` (centres unmarked) [ahpOH, N-(2-cyano-1-hydroxypropan-2-yl)-4-((trifluoromethyl)thio)benzamide], the “inhibition of the development of H. contortus larvae” value in test [2] is “severely and reproducibly inhibited”. Moreover, in test [2], the “LD50 against H. Contortus” value amounted to 173 nM. In addition, the IC50 in test [3] and in test [4] was over 100 µM throughout.
In the case of `CC(C#N)(CO)NC(=O)c1ccc(SC(F)(F)F)cc1` (centres unmarked) [drawing 36], the “Activity against Dirofilaria immitis” value in test [1] is reported as “EC20 at up to 10 μg/mL”.
